Reference: patent US20220281848A1, “PYRAZOLE-SUBSTITUTED PYRROLIDINONES AS HERBICIDES” (FMC Corporation, priority 2019, published 2022)

Test system: plants
Assay: Test D pre-emergence, other plants of Tables D1 and D3
Format: in vivo
Settings: preemergent
Experimental: A formulation containing 50 g/L of the test chemical was prepared by dissolving the active ingredient in a mixture of organic solvents and emulsifier, details of which are provided in the table. This formulation was then mixed with a small, variable amount of acetone to aid dissolution, before addition of a 0.2% v/v aqueous solution of an adjuvant, as the aqueous diluent, to form an aqueous spray solution which contains a predetermined concentration of the active ingredient.
This aqueous spray solution was then sprayed onto plants including maize and wheat that had been seed treated with a herbicide safener, after one day's cultivation (for pre-emergence) or after about 12 days' cultivation (for post-emergence). The plants were grown from seeds sown in standard soil, placed in a glasshouse under controlled conditions (at 24/18° C. or 20/16° C., day/night; 16 h light; 65% humidity). After spray application the plants were then grown in a glasshouse under the same conditions and watered twice daily. After 15 d for post-emergence and 20 DAA for pre-emergence the test was evaluated (100=total damage to plant; 0=no damage to plant).

## CN1CC(c2cc(Cl)n(C)n2)C(C(=O)Nc2ccc(F)c(F)c2F)C1=O (racemic) [Compound 31]
Rates 15, 20 DAA
  ABUTH damage to plant (100=total damage; 0=no damage): 0
  AMARE damage to plant (100=total damage; 0=no damage): 0
  BIDPI damage to plant (100=total damage; 0=no damage): 0
  BRAPL damage to plant (100=total damage; 0=no damage): 0
  CYPES damage to plant (100=total damage; 0=no damage): 0
  DIGSA damage to plant (100=total damage; 0=no damage): 0
  ECHCG damage to plant (100=total damage; 0=no damage): 0
  EPHHL damage to plant (100=total damage; 0=no damage): 0
  GLXMA damage to plant (100=total damage; 0=no damage): 0
  IPOHE damage to plant (100=total damage; 0=no damage): 0
  ORYSA damage to plant (100=total damage; 0=no damage): 0
  PANMI damage to plant (100=total damage; 0=no damage): 0
  SETFA damage to plant (100=total damage; 0=no damage): 0
  SORVU damage to plant (100=total damage; 0=no damage): 0
Rates 30, 20 DAA
  ABUTH damage to plant (100=total damage; 0=no damage): 0
  AMARE damage to plant (100=total damage; 0=no damage): 0
  BIDPI damage to plant (100=total damage; 0=no damage): 0
  BRAPL damage to plant (100=total damage; 0=no damage): 10
  CYPES damage to plant (100=total damage; 0=no damage): 0
  DIGSA damage to plant (100=total damage; 0=no damage): 10
  ECHCG damage to plant (100=total damage; 0=no damage): 0
  EPHHL damage to plant (100=total damage; 0=no damage): 0
  GLXMA damage to plant (100=total damage; 0=no damage): 0
  IPOHE damage to plant (100=total damage; 0=no damage): 0
  ORYSA damage to plant (100=total damage; 0=no damage): 0
  PANMI damage to plant (100=total damage; 0=no damage): 0
  SETFA damage to plant (100=total damage; 0=no damage): 0
  SORVU damage to plant (100=total damage; 0=no damage): 0
Rates 60, 20 DAA
  ABUTH damage to plant (100=total damage; 0=no damage): 0
  AMARE damage to plant (100=total damage; 0=no damage): 0
  BIDPI damage to plant (100=total damage; 0=no damage): 0
  BRAPL damage to plant (100=total damage; 0=no damage): 60
  CYPES damage to plant (100=total damage; 0=no damage): 0
  DIGSA damage to plant (100=total damage; 0=no damage): 50
  ECHCG damage to plant (100=total damage; 0=no damage): 30
  EPHHL damage to plant (100=total damage; 0=no damage): 0
  GLXMA damage to plant (100=total damage; 0=no damage): 0
  IPOHE damage to plant (100=total damage; 0=no damage): 0
  ORYSA damage to plant (100=total damage; 0=no damage): 0
  PANMI damage to plant (100=total damage; 0=no damage): 0
  SETFA damage to plant (100=total damage; 0=no damage): 10
  SORVU damage to plant (100=total damage; 0=no damage): 0
Rates 130, 20 DAA
  ABUTH damage to plant (100=total damage; 0=no damage): 0
  AMARE damage to plant (100=total damage; 0=no damage): 0
  BIDPI damage to plant (100=total damage; 0=no damage): 0
  BRAPL damage to plant (100=total damage; 0=no damage): 80
  CYPES damage to plant (100=total damage; 0=no damage): 0
  DIGSA damage to plant (100=total damage; 0=no damage): 90
  ECHCG damage to plant (100=total damage; 0=no damage): 30
  EPHHL damage to plant (100=total damage; 0=no damage): 0
  GLXMA damage to plant (100=total damage; 0=no damage): 0
  IPOHE damage to plant (100=total damage; 0=no damage): 0
  ORYSA damage to plant (100=total damage; 0=no damage): 0
  PANMI damage to plant (100=total damage; 0=no damage): 0
  SETFA damage to plant (100=total damage; 0=no damage): 30
  SORVU damage to plant (100=total damage; 0=no damage): 0
Rates 250, 20 DAA
  ABUTH damage to plant (100=total damage; 0=no damage): 0
  AMARE damage to plant (100=total damage; 0=no damage): 0
  BIDPI damage to plant (100=total damage; 0=no damage): 0
  BRAPL damage to plant (100=total damage; 0=no damage): 80
  CYPES damage to plant (100=total damage; 0=no damage): 0
  DIGSA damage to plant (100=total damage; 0=no damage): 90
  ECHCG damage to plant (100=total damage; 0=no damage): 80
  EPHHL damage to plant (100=total damage; 0=no damage): 0
  GLXMA damage to plant (100=total damage; 0=no damage): 0
  IPOHE damage to plant (100=total damage; 0=no damage): 0
  ORYSA damage to plant (100=total damage; 0=no damage): 0
  PANMI damage to plant (100=total damage; 0=no damage): 0
  SETFA damage to plant (100=total damage; 0=no damage): 20
  SORVU damage to plant (100=total damage; 0=no damage): 0
Rates 500, 20 DAA
  ABUTH damage to plant (100=total damage; 0=no damage): 0
  AMARE damage to plant (100=total damage; 0=no damage): 0
  BIDPI damage to plant (100=total damage; 0=no damage): 0
  BRAPL damage to plant (100=total damage; 0=no damage): 90
  CYPES damage to plant (100=total damage; 0=no damage): 0
  DIGSA damage to plant (100=total damage; 0=no damage): 90
  ECHCG damage to plant (100=total damage; 0=no damage): 90
  EPHHL damage to plant (100=total damage; 0=no damage): 0
  GLXMA damage to plant (100=total damage; 0=no damage): 0
  IPOHE damage to plant (100=total damage; 0=no damage): 0
  ORYSA damage to plant (100=total damage; 0=no damage): 0
  PANMI damage to plant (100=total damage; 0=no damage): 0
  SETFA damage to plant (100=total damage; 0=no damage): 90
  SORVU damage to plant (100=total damage; 0=no damage): 0
